Results as given in PubChem BioAssay (NCI).
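Grown in 96-well plates, cells were treated for 48 hours with each compound at five concentrations. Insufficient inhibition: endpoint recorded as highest concentration tested. GI50: concentration for 50% inhibition of growth. TGI: concentration producing complete growth inhibition.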

Legend:
Experiment in all cases: growth of human tumour cells (NCI), 48 h
[1] = test system: M19-MEL melanoma
[2] = test system: DMS 114 small cell lung
[3] = test system: XF 498 CNS
[4] = test system: SNB-78 CNS
[5] = test system: KM20L2 colon
[6] = test system: DLD-1 colon
[7] = test system: HOP-18 NSCLC
[8] = test system: RXF-631 renal
[9] = test system: MDA-N

Structure (SMILES)	TGI [1] [µM]	TGI [2] [µM]	TGI [3] [µM]	TGI [4] [µM]	TGI [5] [µM]	TGI [6] [µM]	TGI [7] [µM]	TGI [8] [µM]	GI50 [9] [µM]	TGI [9] [µM]	GI50 [3] [µM]	GI50 [4] [µM]	GI50 [5] [µM]	GI50 [6] [µM]	GI50 [1] [µM]	GI50 [7] [µM]
CC(=O)O[C@H]1CC[C@@]2(C)C(=CC[C@H]3C(CC#N)[C@@](C)(C#N)CCC32)C1 (stereo not given in full)	> 100	> 100	> 100	> 100	> 100	> 100	–	–	–	–	–	–	–	–	–	–
CCOC(=O)NC(=O)c1cn(C2CCCCC2)c(=O)n(C)c1=O	> 100	> 100	–	> 100	> 100	> 100	> 100	> 100	–	–	–	–	–	–	–	–
CC(=O)OC1CC2C(C)(C)C(=O)C=C[C@]2(C)C2CCC3(C)C(c4ccoc4)C(=O)C4OC43[C@]12C (stereo not given in full)	32.5	33.3	–	> 100	32.1	34	> 100	–	–	–	–	–	–	–	–	–
Cn1cnc(SC2=CC(=O)C=C3S[C@H]4C[C@@]23c2c(c(O)c3c5c2=NCCC=5C=N3)N4)c1CC(N)C(=O)O (stereo not given in full)	3.89	4.31	31.4	38.4	11.6	26.3	30.7	–	2	3.63	17.6	15.3	2.48	12.6	–	–
COC(=O)CCCCCOS(=O)(=O)c1ccc(C)cc1	> 100	> 100	> 100	> 100	> 100	> 100	> 100	> 100	–	–	–	–	–	–	–	–
Nc1ccc(C(=O)CC2(O)C(=O)Nc3ccccc32)cc1 (stereo not given)	> 100	> 100	> 100	> 100	> 100	> 100	–	–	–	–	–	–	–	–	–	–
Oc1cccc2ccc(SSc3ccc4cccc(O)c4n3)nc12	–	–	–	–	–	–	–	–	–	38.6	–	–	–	–	–	–
Cc1ccc(NC(=O)CCc2nnc3s/c(=C\C=C\c4ccccc4)c(=O)n23)cc1	> 100	> 100	> 100	> 100	> 100	> 100	> 100	> 100	–	> 100	–	–	–	–	–	–
COc1cccc(/C=C2\N=C(Cl)OC2=O)c1O	–	> 100	> 100	> 100	> 100	> 100	> 100	–	–	–	–	–	–	–	–	–
O=C(O)c1nn(-c2ccc(Cl)cc2)c2c1C(=O)c1ccccc1C2=O	–	–	–	–	–	–	–	–	–	> 100	–	–	–	–	–	–
Oc1ccc(Br)cc1C=NC1CCCCC1	–	–	–	–	–	–	–	–	–	> 100	–	–	–	–	–	–
O=c1cccccc1O	–	–	–	–	–	–	–	–	–	> 100	–	–	–	–	–	–
CC1CCCc2c1n[nH]c2CC1CC(=O)NC(=O)C1 (stereo not given)	> 100	> 100	> 100	> 100	> 100	> 100	> 100	> 100	–	–	–	–	–	–	–	–
CCCC[C@H](CCc1ccccc1)N(C(=O)OC)N1CCC[C@H]1COC	40.4	30.2	28.5	47.3	30.2	34.8	53.1	32.4	–	–	–	–	–	–	–	–
NC1=C(O)/C(=N/NS(=O)(=O)c2ccccc2)C(c2ccc3c(c2)OCO3)O1 (stereo not given)	83.4	> 100	–	> 100	> 100	> 100	> 100	–	–	–	–	–	–	–	–	–
O=[N+]([O-])c1cc(I)cc(/C=N/NS(=O)(=O)c2ccc(F)cc2)c1O	86.7	52.2	–	69	> 100	> 100	53.2	57.9	–	–	–	–	–	–	–	–
CC(C)(C)c1cc[n+](C[n+]2ccc(C(C)(C)C)cc2)cc1	–	–	–	–	–	–	–	–	–	> 100	–	–	–	–	–	–
C[N+]1(CCNP(=S)(NCC[N+]2(C)Cc3c(ccc4c3OCO4)C3C2c2cc4c(cc2C[C@@H]3O)OCO4)NCC[N+]2(C)Cc3c(ccc4c3OCO4)C3C2c2cc4c(cc2C[C@@H]3O)OCO4)Cc2c(ccc3c2OCO3)C2C1c1cc3c(cc1C[C@H]2O)OCO3 (stereo not given in full)	–	–	–	–	–	–	–	–	–	–	0.846	2.7	2.13	1.68	2.04	45.2
Cn1c(=O)nc2n(-c3ccc(F)c(F)c3)c3ccccc3nc-2c1=O	3.44	18	36.2	54.6	23.8	85.3	97.7	62.4	–	–	–	–	–	–	–	–
CC1=NC(C)=C(/C(C)=N/NC(=O)c2ccccc2O)C(C)/C1=C(/C)NNC(=O)c1ccccc1O (stereo not given)	> 100	44.1	85.9	> 100	> 100	> 100	–	> 100	–	–	–	–	–	–	–	–

Structure (SMILES)	TGI [1] [µM]	TGI [2] [µM]	TGI [3] [µM]	TGI [4] [µM]	TGI [5] [µM]	TGI [6] [µM]	TGI [7] [µM]	TGI [8] [µM]	GI50 [9] [µM]	TGI [9] [µM]	GI50 [3] [µM]	GI50 [4] [µM]	GI50 [5] [µM]	GI50 [6] [µM]	GI50 [1] [µM]	GI50 [7] [µM]
CCCCCCCCCCNC(=S)OC	69.4	44.9	–	> 100	> 100	> 100	> 100	> 100	–	–	–	–	–	–	–	–
CSc1nc2c(nc(N)n2C2OC(CO)C(O)C(O)C2O)c(=O)[nH]1 (stereo not given)	> 100	> 100	> 100	> 100	> 100	> 100	> 100	> 100	–	–	–	–	–	–	–	–
CN1C(c2ccccc2)CC(=NO)CC1c1ccccc1 (stereo not given)	> 100	> 100	–	> 100	> 100	> 100	–	> 100	76	–	–	–	–	–	–	–
Clc1ccc(-c2nnc(-c3nn(-c4ccccc4)c4nc5ccccc5nc34)o2)cc1	> 100	> 100	64.6	> 100	> 100	> 100	> 100	–	–	–	–	–	–	–	–	–
Cn1nc(-c2ccccc2)c2c(/C=C/c3ccc(F)cc3)onc2c1=O	> 100	–	> 100	–	> 100	> 100	> 100	–	–	–	–	–	–	–	–	–
CC(=O)N(N=O)c1ccc(N(N=O)C(C)=O)cc1	> 100	> 100	–	> 100	> 100	> 100	–	–	–	–	–	–	–	–	–	–
NCCCNCc1c2ccccc2c(CNCCCN)c2ccccc12	35.4	37.8	–	60.1	53.4	> 100	75	–	–	–	–	–	–	–	–	–
O=C1CC=C2C3CC4N(CCC45c4ccccc4N1C25)C/C3=C\CO (stereo not given)	–	–	–	–	–	–	–	–	–	> 100	–	–	–	–	–	–
C/C(=N\NC(=O)c1ccccc1O)c1c(O)cc(C)oc1=O	> 100	> 100	–	> 100	> 100	> 100	> 100	–	–	–	–	–	–	–	–	–
COc1nc(NC2OC(COC(C)=O)C(OC(C)=O)C(OC(C)=O)C2OC(C)=O)c(N=C(C)C(C)=O)c(=O)n1C (stereo not given)	> 100	> 100	> 100	> 100	> 100	> 100	> 100	–	–	–	–	–	–	–	–	–
O=C(N/C(=C\c1cccc([N+](=O)[O-])c1)c1nc2c3c(ccc2[nH]1)C(=O)c1ccccc1C3=O)c1ccccc1	–	> 100	> 100	> 100	> 100	> 100	> 100	–	–	–	–	–	–	–	–	–
C=CCN=C1NC(=O)C(CC(=O)Nc2cccc(Cl)c2)S1 (stereo not given)	> 100	> 100	> 100	–	> 100	> 100	> 100	> 100	–	–	–	–	–	–	–	–
Cc1ccc(NC(=O)C(=O)C2C(=O)NC(=O)NC2=O)c(C)c1	> 100	> 100	–	> 100	> 100	> 100	> 100	> 100	–	–	–	–	–	–	–	–
CCCCSC1CCSc2c1ccc1ccccc21 (stereo not given)	> 100	> 100	63.9	> 100	> 100	> 100	> 100	–	–	–	–	–	–	–	–	–
CN1CCN(c2ccncc2S(=O)(=O)N2CCN(C)CC2)CC1	–	–	–	–	–	–	–	–	–	> 100	–	–	–	–	–	–
CSc1ccc(Cc2cc(C(C)(C)C)cc(C(C)(C)C)c2O)cc1	31.1	25.7	31.8	28.8	28.2	27.1	33.8	29.4	–	–	–	–	–	–	–	–
CCCC(=O)Oc1ccc(/C=N/NC(N)=S)nc1	> 100	> 100	–	> 100	> 100	> 100	> 100	–	–	–	–	–	–	–	–	–
OCC1CC2C=CCC(C2)C1 (stereo not given)	> 100	> 100	> 100	> 100	> 100	> 100	> 100	–	–	–	–	–	–	–	–	–
C=C1C2CC(OC(C)=O)C3(C)C(c4ccoc4)OC(=O)[C@@H](O)[C@]13OC1C[C@H](OC(C)=O)C(C)(C)[C@H](C(O)C(=O)OC)[C@]12C (stereo not given in full)	> 100	> 100	–	> 100	> 100	> 100	> 100	–	–	–	–	–	–	–	–	–
